Data on 4 compounds can be found in BindingDB's records for doi:10.1021/jm00018a023 (Upjohn, 1995).

pKi: −log10 of the molar value.

The experiment has as its target T1, Dimer of Gag-Pol polyprotein [489-587] (Human immunodeficiency virus 1, UniProt P12497).
T1 construct: 489-587
Nature of the experiment: Protease Inhibition Assay. To be noted: pH 5; 22 °C. From the text: HIV-1 protease was purified and refolded from E. coli inclusion bodies. The substrate used spans the p17-p24 processing site (R-V-S-Q-N-Y-P-I-V-Q-N-K) and was derivatized with biotin and fluorescein isothiocyanate (FITC) at the amino and carboxy termini. In the presence of HIV-l protease, the substrate is rapidly cleaved into two parts. The biotinylated amino terminal fragment binds to the avidin beads while the FITC-containing carboxy1 terminal fragment is removed through the membrane. […] The bound fluorescence is obtained by processing on an IDEXX Screen Machine. Determination of Ki values with this assay requires analysis under conditions in which substrate concentration resides substantially below Km and the inhibitor concentrations greatly exceeds the Ki value and the enzyme concentration.
Turning to `CCC(c1cccc(C(=O)N[C@H](C(=O)NCc2ccccn2)C(C)CC)c1)c1c(O)c2ccccc2oc1=O` (some centres undefined) [3-[1-(4-Hydroxy-2-oxo-2H-1-benzopyran-3-yl)propyl]-N-[2-methyl-1-[[(2-pyridinylmethyl)amino]carbonyl]butyl]benzamide], the pKi is 6.40.

`CCC(c1cccc(NC(=O)CCNC(=O)OC(C)(C)C)c1)c1c(O)c2ccc(OC)cc2oc1=O` (centres undefined) [4-Hydroxy-3-[1-3-[[3-[(tert-butyloxycarbonyl)amino]-1-oxopropyl]amino]phenyl]propyl]-7-methoxycoumarin]: the pKi is 6.77. This pKi lies 0.37 log units higher than the previous one.

On to `CCC(c1cccc(C(=O)NCc2nc3ccccc3[nH]2)c1)c1c(O)c2ccccc2oc1=O` (centres undefined) [N-(1H-1,3-benzodiazol-2-ylmethyl)-3-[1-(4-hydroxy-2-oxo-2H-chromen-3-yl)propyl]benzamide], for which the pKi was 5.36.

Compound `CC(C)(C)OC(=O)NCCC(=O)Nc1cccc(C(c2c(O)c3ccccc3oc2=O)C2CC2)c1` (centres undefined) [tert-butyl N-[2-({3-[cyclopropyl(4-hydroxy-2-oxo-2H-chromen-3-yl)methyl]phenyl}carbamoyl)ethyl]carbamate] had a pKi of 7.07. This pKi is 1.71 log units higher than that of the compound before.

As a reminder, the pKi is the negative decadic logarithm of the Ki, by convention in mol/L.
